Test in all cases: NCI-60 cell line screen, 48 h
The test system of experiment [1] is HL-60(TB) leukemia.
In experiment [2] the test system is OVCAR-3 ovarian.
Experiment [3] concerns OVCAR-8 ovarian.
The subject of experiment [4] is UO-31 renal.
The test system of experiment [5] is EKVX NSCLC.
Experiment [6] concerns SK-OV-3 ovarian.

The structures appear in SMILES notation.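 Five concentrations, 48 hours, 96-well plates. TGI marks complete inhibition of growth.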 Where only a bound is given, the exact number is not on record here.

Consider `NCC1(N2CCOCC2)C2CCCC21CNc1ccccc1` (configuration not stated), for which the TGI in experiment [1], in experiment [2], in experiment [3] and in experiment [4] was above 100 µM throughout.

With `CC1CC(c2ccc(Cl)c(Cl)c2)=Nc2ccccc2S1` (configuration not stated), the TGI in experiment [5], in experiment [1], in experiment [2], in experiment [3], in experiment [6] and in experiment [4] was above 100 µM in each case.

`CN1CCc2cc3c4cc2C1Cc1ccc(cc1)Oc1cc(ccc1O)CC1c2c(cc(O)c(c2O4)O3)CCN1C` (configuration not stated): the TGI in experiment [5] stood at 25.8 µM; in experiment [1], 41.6 µM; in experiment [2], 11.5 µM; in experiment [3], 8.55 µM; in experiment [6], 9 µM; in experiment [4] it was 13.6 µM.

With `COC(=O)C1=C(\O)C[C@@]2(C)CC[C@@H](C(=O)OC)C2C/C=C\1C(=O)OC` (some centres not stated), the TGI in experiment [5], in experiment [1], in experiment [2], in experiment [3], in experiment [6] and in experiment [4] was above 100 µM in each case.

In the case of `COC(CC1(OC)OC(=O)C=C1N)OC` (configuration not stated), the TGI in experiment [5], in experiment [1], in experiment [2], in experiment [3], in experiment [6] and in experiment [4] was above 100 µM each time.

Regarding `COC(=O)NC(=O)c1cn(C2CCCCC2)c(=O)[nH]c1=O`, the TGI in experiment [1], in experiment [2], in experiment [3], in experiment [6] and in experiment [4] was above 100 µM each time.

`NC(=O)c1cc([N+](=O)[O-])cc([N+](=O)[O-])c1`: the TGI in experiment [5], in experiment [1], in experiment [2], in experiment [3], in experiment [6] and in experiment [4] was above 100 µM in each case.

Take `O=C(NC1C(=O)NNC1c1ccccc1Cl)c1ccccc1` (configuration not stated): the TGI in experiment [5], in experiment [1], in experiment [2], in experiment [3], in experiment [6] and in experiment [4] was above 100 µM in each case.

Regarding `O=C1c2ccccc2C(=O)c2c1ccc1c2N=C(c2ccc(Br)cc2)CC(c2cccc3ccccc23)N1` (configuration not stated), the TGI in experiment [5], in experiment [1], in experiment [2], in experiment [3], in experiment [6] and in experiment [4] was above 100 µM each time.

Consider `Cn1cnc([N+](=O)[O-])c1Sc1nc2ccc([N+](=O)[O-])cc2[nH]1`, for which the TGI in experiment [5] was 46.7 µM; in experiment [1], above 100 µM; in experiment [2], above 100 µM; in experiment [3], 39.2 µM; in experiment [6] it was 62.5 µM; in experiment [4], 67.6 µM.

Take `CCCCCCCCCCCC(=O)OC(COC(N)=O)COc1ccc(Cl)cc1` (configuration not stated): the TGI in experiment [5] was 92.1 µM; in experiment [1], 33.3 µM; in experiment [2] it was 31.6 µM; in experiment [3], 33.6 µM; in experiment [6], above 100 µM; in experiment [4] it was above 100 µM.

With `NC(=O)c1ncn(Cc2ccccc2)c1CNC(N)=S`, the TGI in experiment [5], in experiment [1], in experiment [2], in experiment [3], in experiment [6] and in experiment [4] was above 100 µM throughout.

For the compound `O=C1CC[C@@H](NC(=O)Cc2ccccc2)C(=O)N1`, the TGI in experiment [5], in experiment [2], in experiment [3], in experiment [6] and in experiment [4] was above 100 µM each time.

As for `CCCCC(C(=O)CCC(=O)Nc1ccc(Cl)cc1)C(=O)C(C)C` (configuration not stated), the TGI in experiment [5], in experiment [1], in experiment [2], in experiment [3], in experiment [6] and in experiment [4] was above 100 µM throughout.

Consider `O=C(/C=C/c1ccc(O)cc1)c1cc(Cl)ccc1O`, for which the TGI in experiment [5] is above 100 µM; in experiment [1] it was 45.8 µM; in experiment [2], above 100 µM; in experiment [3] it was above 100 µM; in experiment [6] it was above 100 µM; in experiment [4], 70.5 µM.

In the case of `ClCCCCOC1CCCCO1` (configuration not stated), the TGI in experiment [5], in experiment [1], in experiment [2], in experiment [3], in experiment [6] and in experiment [4] was above 100 µM in each case.

Regarding `Cc1ccc(NC(=O)C(=O)CC(=O)c2ccccc2)cc1C`, the TGI in experiment [5], in experiment [2], in experiment [3], in experiment [6] and in experiment [4] was above 100 µM in each case.

For the origin of these results see PubChem BioAssay (NCI).
